ChEMBL document CHEMBL3745638, “Synthesis and biological evaluation of a novel artesunate-podophyllotoxin conjugate as anticancer agent” (Bioorg Med Chem Lett, 2016)
Calls of active or inactive are those of the source. The rule behind the calls is not given here.

Legend:
K562 [1] = assay: Antiproliferative activity against human K562 cells assessed as growth inhibition after 72 hrs by CCK-8 assay; assay type: functional, cell-based; settings: K562, 72 h
Tubulin (Homo sapiens) [2] = molecular target: T1, Tubulin (Homo sapiens) (UniProt P68371+Q9H4B7+P0DPH7+P68366+Q13509+Q71U36+P04350+Q3ZCM7+P07437+P68363+Q9BQE3+Q6PEY2+Q13885+Q9BVA1+Q9BUF5); assay: Inhibition of tubulin polymerization in human K562/ADR cells assessed as reduction in microtubule density at 5 uM after 8 hrs by DAPI staining based immunofluorescence microscopy; assay type: cell-based
Tubulin (Homo sapiens) [3] = molecular target: T1, Tubulin (Homo sapiens); assay: Inhibition of tubulin polymerization in human K562/ADR cells assessed as microtubule disruption at 5 uM after 8 hrs by DAPI staining based immunofluorescence microscopy; assay type: cell-based
[4] = Cell cycle arrest in human K562/ADR cells assessed as accumulation in G2/M phase at 2.5 uM after 48 hrs by propidium iodide staining-based flow cytometry (reference value: 8.32 +/- 0.81%); assay type: functional
A549 = assay: Antiproliferative activity against human A549 cells assessed as growth inhibition after 72 hrs by CCK-8 assay; assay type: functional, cell-based; settings: A549, 72 h
K562/Adr [5] = assay: Inhibition of P-glycoprotein in human K562/ADR cells at 2.5 uM after 48 hrs by Western blot analysis; assay type: cell-based
K562/Adr [6] = assay: Induction of apoptosis in human K562/ADR cells assessed as early apoptotic cells at 2.5 uM after 48 hrs by Annexin V-APC/7-AAD staining based flow cytometry (reference value: 1.49%); assay type: functional
K562 [7] = assay: Resistance factor, ratio of IC50 for human K562/ADR cells to IC50 for human K562 cells; assay type: functional
K562/Adr [8] = assay: Induction of apoptosis in human K562/ADR cells assessed as induction of cell shrinkage at 2.5 uM after 48 hrs by Hoechst 33342 staining based fluorescence microscopy; assay type: functional
HUVEC = assay: Antiproliferative activity against HUVEC assessed as growth inhibition after 72 hrs by CCK-8 assay; assay type: cell-based; settings: Homo sapiens
K562/Adr [9] = assay: Induction of apoptosis in human K562/ADR cells assessed as nuclear condensation at 2.5 uM after 48 hrs by Hoechst 33342 staining based fluorescence microscopy; assay type: functional, cell-based
[10] = Antiproliferative activity against human K562/ADR cells assessed as growth inhibition after 72 hrs by CCK-8 assay; assay type: functional, cell-based
HepG2 = assay: Antiproliferative activity against human HepG2 cells assessed as growth inhibition after 72 hrs by CCK-8 assay; assay type: functional, cell-based; settings: HepG2, 72 h
K562/Adr [11] = assay: Induction of apoptosis in human K562/ADR cells assessed as late apoptotic cells at 2.5 uM after 48 hrs by Annexin V-APC/7-AAD staining based flow cytometry (reference value: 1.69%); assay type: functional
K562/Adr [12] = assay: Induction of apoptosis in human K562/ADR cells assessed as nuclear fragmentation at 2.5 uM after 48 hrs by Hoechst 33342 staining based fluorescence microscopy; assay type: functional, cell-based
HeLa = assay: Antiproliferative activity against human HeLa cells assessed as growth inhibition after 72 hrs by CCK-8 assay; assay type: functional, cell-based
K562/Adr [13] = assay: Induction of apoptosis in human K562/ADR cells assessed as necrotic cells at 2.5 uM after 48 hrs by Annexin V-APC/7-AAD staining based flow cytometry (reference value: 3.57%); assay type: functional
K562/Adr [14] = assay: Induction of apoptosis in human K562/ADR cells assessed as viable cells at 2.5 uM after 48 hrs by Annexin V-APC/7-AAD staining based flow cytometry (reference value: 93.25%); assay type: functional; settings: read-out: Activity
K562/Adr [15] = assay: Induction of apoptosis in human K562/ADR cells assessed as late apoptotic cells at 6.5 uM after 48 hrs by Annexin V-APC/7-AAD staining based flow cytometry (reference value: 1.69%); assay type: functional
K562/Adr [16] = assay: Induction of apoptosis in human K562/ADR cells assessed as induction of cell shrinkage at 6.5 uM after 48 hrs by Hoechst 33342 staining based fluorescence microscopy; assay type: functional
K562/Adr [17] = assay: Induction of apoptosis in human K562/ADR cells assessed as nuclear condensation at 6.5 uM after 48 hrs by Hoechst 33342 staining based fluorescence microscopy; assay type: functional, cell-based
Tubulin (Homo sapiens) [18] = molecular target: T1, Tubulin (Homo sapiens); assay: Inhibition of tubulin polymerization in human K562/ADR cells assessed as reduction in microtubule density at 13 uM after 16 hrs by DAPI staining based immunofluorescence microscopy; assay type: cell-based
[19] = Cell cycle arrest in human K562/ADR cells assessed as accumulation in G2/M phase at 6.5 uM after 48 hrs by propidium iodide staining-based flow cytometry (reference value: 8.32 +/- 0.81%); assay type: functional
K562/Adr [20] = assay: Induction of apoptosis in human K562/ADR cells assessed as early apoptotic cells at 6.5 uM after 48 hrs by Annexin V-APC/7-AAD staining based flow cytometry (reference value: 1.49%); assay type: functional
Tubulin (Homo sapiens) [21] = molecular target: T1, Tubulin (Homo sapiens); assay: Inhibition of tubulin polymerization in human K562/ADR cells assessed as microtubule disruption at 13 uM after 16 hrs by DAPI staining based immunofluorescence microscopy; assay type: cell-based
K562/Adr [22] = assay: Inhibition of P-glycoprotein in human K562/ADR cells at 6.5 uM after 48 hrs by Western blot analysis; assay type: cell-based
K562/Adr [23] = assay: Induction of apoptosis in human K562/ADR cells assessed as nuclear fragmentation at 6.5 uM after 48 hrs by Hoechst 33342 staining based fluorescence microscopy; assay type: functional, cell-based
K562/Adr [24] = assay: Induction of apoptosis in human K562/ADR cells assessed as necrotic cells at 6.5 uM after 48 hrs by Annexin V-APC/7-AAD staining based flow cytometry (reference value: 3.57%); assay type: functional
K562/Adr [25] = assay: Induction of apoptosis in human K562/ADR cells assessed as viable cells at 6.5 uM after 48 hrs by Annexin V-APC/7-AAD staining based flow cytometry (reference value: 93.25%); assay type: functional; settings: read-out: Activity
K562/Adr [26] = assay: Induction of apoptosis in human K562/ADR cells assessed as necrotic cells at 0.1 uM after 48 hrs by Annexin V-APC/7-AAD staining based flow cytometry (reference value: 3.57%); assay type: functional
K562/Adr [27] = assay: Induction of apoptosis in human K562/ADR cells assessed as nuclear fragmentation at 0.1 uM after 48 hrs by Hoechst 33342 staining based fluorescence microscopy; assay type: functional, cell-based
K562/Adr [28] = assay: Induction of apoptosis in human K562/ADR cells assessed as viable cells at 0.1 uM after 48 hrs by Annexin V-APC/7-AAD staining based flow cytometry (reference value: 93.25%); assay type: functional; settings: read-out: Activity
K562/Adr [29] = assay: Induction of apoptosis in human K562/ADR cells assessed as induction of cell shrinkage at 0.1 uM after 48 hrs by Hoechst 33342 staining based fluorescence microscopy; assay type: functional
K562/Adr [30] = assay: Induction of apoptosis in human K562/ADR cells assessed as nuclear condensation at 0.1 uM after 48 hrs by Hoechst 33342 staining based fluorescence microscopy; assay type: functional, cell-based
Tubulin (Homo sapiens) [31] = molecular target: T1, Tubulin (Homo sapiens); settings: K562/Adr, 0.2 uM
Description: Inhibition of tubulin polymerization in human K562/ADR cells assessed as reduction in microtubule density at 0.2 uM after 8 hrs by DAPI staining based immunofluorescence microscopy

Tubulin (Homo sapiens) [32] = molecular target: T1, Tubulin (Homo sapiens); settings: K562/Adr, 0.2 uM; remark: listed apart in the source
Description: Inhibition of tubulin polymerization in human K562/ADR cells assessed as microtubule disruption at 0.2 uM after 8 hrs by DAPI staining based immunofluorescence microscopy

K562/Adr [33] = assay: Induction of apoptosis in human K562/ADR cells assessed as late apoptotic cells at 0.1 uM after 48 hrs by Annexin V-APC/7-AAD staining based flow cytometry (reference value: 1.69%); assay type: functional
K562/Adr [34] = assay: Inhibition of P-glycoprotein in human K562/ADR cells at 0.1 uM after 48 hrs by Western blot analysis; assay type: cell-based
K562/Adr [35] = assay: Induction of apoptosis in human K562/ADR cells assessed as early apoptotic cells at 0.1 uM after 48 hrs by Annexin V-APC/7-AAD staining based flow cytometry (reference value: 1.49%); assay type: functional
[36] = Cell cycle arrest in human K562/ADR cells assessed as accumulation in G2/M phase at 0.1 uM after 48 hrs by propidium iodide staining-based flow cytometry (reference value: 8.32 +/- 0.81%); assay type: functional

## COc1cc([C@@H]2c3cc4c(cc3[C@H](OC(=O)CCC(=O)O[C@H]3O[C@@H]5O[C@@]6(C)CC[C@H]7[C@H](C)CC[C@@H]([C@H]3C)[C@@]57OO6)[C@H]3COC(=O)[C@H]23)OCO4)cc(OC)c1OC
K562 [1]
  IC50: 453 nM
Tubulin (Homo sapiens) [2]
  inhibition: Active
Tubulin (Homo sapiens) [3]
  inhibition: Active
[4]
  Activity: 21.4%
A549
  IC50: 3010 nM
K562/Adr [5]
  inhibition: Active
K562/Adr [6]
  Activity: 2.68%
K562 [7]
  Ratio IC50: 4.454
K562/Adr [8]
  Activity: Active
HUVEC
  IC50: 720 nM
K562/Adr [9]
  Activity: Active
[10]
  IC50: 2020 nM
HepG2
  IC50: 672 nM
K562/Adr [11]
  Activity: 2.82%
K562/Adr [12]
  Activity: Active
HeLa
  IC50: 936 nM
K562/Adr [13]
  Activity: 6.39%
K562/Adr [14]
  viability at 2.5 µM: 88.1%

## C[C@H]1[C@H](OC(=O)CCC(=O)O)O[C@@H]2O[C@@]3(C)CC[C@H]4[C@H](C)CC[C@@H]1[C@@]24OO3 [ARTESUNATE]
K562 [1]
  IC50: 6000 nM
K562/Adr [15]
  Activity: 9.31%
K562/Adr [16]
  Activity: Active
A549
  IC50: 15900 nM
K562/Adr [17]
  Activity: Active
Tubulin (Homo sapiens) [18]
  inhibition: Active
K562 [7]
  Ratio IC50: 1.042
[19]
  Activity: 16.9%
HUVEC
  IC50: 1090 nM
K562/Adr [20]
  Activity: 5.97%
[10]
  IC50: 6260 nM
Tubulin (Homo sapiens) [21]
  inhibition: Active
HepG2
  IC50: 22200 nM
K562/Adr [22]
  inhibition: Active
K562/Adr [23]
  Activity: Active
HeLa
  IC50: 19000 nM
K562/Adr [24]
  Activity: 7.2%
K562/Adr [25]
  viability at 6.5 µM: 77.5%

## COc1cc([C@@H]2c3cc4c(cc3[C@H](O)[C@H]3COC(=O)[C@H]23)OCO4)cc(OC)c1OC [PODOFILOX]
K562/Adr [26]
  Activity: 10.26%
K562/Adr [27]
  Activity: Active
K562 [1]
  IC50: 6 nM
K562/Adr [28]
  viability at 0.1 µM: 54.4%
K562/Adr [29]
  Activity: Active
K562/Adr [30]
  Activity: Active
A549
  IC50: 14 nM
Tubulin (Homo sapiens) [31]
  inhibition: Active
K562 [7]
  Ratio IC50: 14.166
Tubulin (Homo sapiens) [32]
  inhibition: Active
K562/Adr [33]
  Activity: 10.65%
K562/Adr [34]
  inhibition: Active
K562/Adr [35]
  Activity: 24.7%
HUVEC
  IC50: 14 nM
[10]
  IC50: 85 nM
HepG2
  IC50: 14 nM
[36]
  Activity: 33.2%
HeLa
  IC50: 12 nM

## COc1cc([C@@H]2c3cc4c(cc3[C@@H](O[C@@H]3O[C@@H]5CO[C@@H](C)O[C@H]5[C@H](O)[C@H]3O)[C@H]3COC(=O)[C@H]23)OCO4)cc(OC)c1O [ETOPOSIDE]
K562 [1]
  IC50: 413 nM
A549
  IC50: 2680 nM
K562 [7]
  Ratio IC50: 4.903
HUVEC
  IC50: 1340 nM
[10]
  IC50: 2020 nM
HepG2
  IC50: 1750 nM
HeLa
  IC50: 1600 nM
